The subject of experiment [1] is KPC-derived orthotopic pancreatic tumors. As to the kind of experiment: Syngeneic orthotopic pancreatic cancer model, gemcitabine and IGF blocking antibody BI 836845. The experiment is classed as in vivo, mouse. The following applies: for effect on tumor growth (tumor weights): i.p. twice a week for two weeks, gemcitabine 100 mg/Kg, BI 836845 100 mg/Kg, vs control IgG, FIG. 47b. The procedure: FIG. 47 illustrates a combination with gemcitabine with IGF blockade inhibites tumor growth in the syngeneic orthotopic pancreatic cancer model: (a) KPC^luc/zsGreen(zsGreen)-derived pancreatic tumor cells were orthotopically implanted into the pancreas of syngeneic recipient mice, and mice were treated, starting at day 7 after tumor implantation, twice a week i.p., with either control IgG antibody, gemcitabine (100 mg/Kg), IGF blocking antibody BI 836845 (100 mg/Kg) or a combination of gemcitabine with IGF blocking antibody. (b) Representative images of tumors and tumor weights are shown (n=6 mice per group). (c) Pancreatic tumors were digested and percentage of intra- tumoral F4/80+ macrophages, Ly6C+/Ly6G− inflammatory monoctyes, Gr1+/CD11b+ neutrophils and myeloid derived suppressor cells (MDSCs) and CD8+ cytotoxic T cells (CTCs), among CD45+ immune cells, were quantified by flow cytometry (n=3). (d) Percentage of intra-tumoral CD206− M1-like macrophages and CD206+M2-like macrophages, among F4/80+ macrophages, were quantified by flow cytometry (n=3). […] (f) Quantification of cleaved caspase-3 positive apoptotic cells in PDA tumors treated with IgG (control), gemcitabine, IGF blocking antibody BI 836845 or gemcitabine+BI 836845 (n=6 fields counted).
All animal experiments were performed in accordance with current UK legislation under an approved project licence (reference number: 403725). […] Tumor tissues were analyzed by immunohistochemical and immunofluorescent staining for phospho-lnsulin/IGFR expression, EpCAM expression, macrophage infiltration, fibroblast activation and apoptosis using the following antibodies: phospho-insulin/IGF receptor antibody (R&D), EpCAM (BD Pharmingen), CD68 antibody (DAKO), CD206 (abcam), αSMA (abcam) and cleaved caspase 3 (Cell signaling). Expression of IGF-1, IGF-2, Arginase, IL-10, IFNγ and IL-12 in intra-tumoral isolated macrophages were determined by qPCR. […]

In a further experiment the test system is pancreatic cancer. As to conditions: patients diagnosed with pancreatic cancer; cited from earlier work.
The test system of experiment [2] is Suit-2 and KPC-derived pancreatic cancer cells. Put plainly: Cell death by flow cytometry (annexinV/PI) under chemotherapy with MCM, IGF blocking antibody or recombinant IGF. The class given is cell-based. As to conditions: recombinant IGF 100 ng/ml, 24 hours, FIGS. 30-32. Here is the method:
FIG. 29 illustrates quantification of cell death in Suit-2 cells treated with gemcitabine, MCM and IGF blocking antibody for 24 hours. Error bars represent s.d. (n=3); **two tailed p value≤0.01, *two tailed p value≤0.05 using a student's t-test.
FIG. 30 illustrates primary mouse KPC-derived pancreatic cancer cells were untreated or treated with gemcitabine, MCM, IGF blocking antibody or recombinant IGF for 24 hours and percentage of cell death was quantified by flow cytometry. Error bars represent s.d. (n=3); **two tailed p value≤0.01 using a student's t-test.
FIG. 32 illustrates KPC-derived cells which were cultured in the presence or absence of MCM or recombinant IGF and treated with 100 or 1000 nM nab-paclitaxel for 24 hours. Percentage of cell death was quantified by flow cytometry. Error bars represent s.d. (n=3); *two tailed p value≤0.05 using a student's t-test.
Suit-2 and KPC cells were cultured in serum free or DMEM with 2% FBS respectively, pretreated for 3 h with human or mouse macrophage conditioned media respectively, and IGF-1 IgG blocking antibody (abcam 9572) at 10 μg/ml or IgG antibody as control, followed by Gemcitabine at 200 nM. Cells were harvested after 24 hours, and subjected to flow cytometry. […] Apoptosis was evaluated by flow cytometry (FACS Calibur, Becton Dickinson). […]
(Flow cytometry measures light scatter and fluorescence of single cells or particles in a stream.)

The subject of another experiment is Insulin/IGF receptor. As to the kind of experiment: Immunoblotting of Insulin/IGF receptor signalling in cancer cells. The class given is cell-based, human, mouse. The following applies: Suit-2, KPC-derived and Py230 cells, 3 hours; FIG. 27. Here is the method: FIG. 27 illustrates Immunoblot analysis of phospho-lnsulin/IGF receptor, phospho-Insulin receptor, Insulin receptor, phospho- IGF receptor 1, IGFR1 and tubulin, in human pancreatic cancer Suit-2 cells, murine primary KPC pancreatic cancer and
Py230 breast cancer derived cells, serum starved, exposed to MCM or exposed to recombinant IGF for 3 hours.
FIG. 28 illustrates that blockade of IGF impairs macrophage-mediated activation of Insulin/IGF receptor and downstream signalling molecules IRS1, IRS2 and AKT in cancer cells by Immunoblotting analysis of Suit-2 cells untreated or treated with MCM or MCM+IGF blocking antibody for 3 hours.
Cells were serum starved or treated with macrophage conditioned media for 30 min, 2 h or 3 h, harvested and lysed in RIPA buffer (150 mM NaCl, 10 mM Tris-HCl pH 7.2, 0.1% SDS, 1% Triton X-100, 5 mM EDTA) supplemented with a complete protease inhibitor mixture (SIGMA), a phosphatase inhibitor cocktail (Invitrogen), 1 mM PMSF and 0.2 mM Na3VO4. Cell lysates (300 μg) were analyzed with the Human Phospho-RTK Array Kit (R&D Systems). Protein samples were resuspended in 4xLaemmli sample buffer, and immunoblotting was performed on nitrocellulose membranes blocked in 5% BSA or milk (depending on the antibody) in Tris-buffered saline Tween-20 (TBST). […]
(In western blotting, separated proteins are transferred to a membrane and probed.)

In experiment [3] the test system is Suit-2 and KPC derived pancreatic cancer cells. As to the kind of experiment: Cell death and cell cycle analysis of cancer cells treated with the agents alone. The class given is cell-based, human, mouse. As to conditions: no chemotherapy; antibody 10 μg/ml, recombinant IGF 100 ng/ml; FIGS. 52 and 53. Here is the method:
FIG. 52 illustrates quantification of cell death in Suit-2 cells exposed to 200 nM gemcitabine, MCM and/or IGF blocking antibody (10 μg/ml). Error bars represent s.d. (n=3); **two tailed p value≤0.01 using a student's t-test.
FIG. 53 illustrates cell cycle analysis of primary mouse KPC derived pancreatic cancer cells exposed to MCM, IGF blocking antibody ([…]) or recombinant IGF (100 ng/ml).
KPC derived pancreatic cancer cells were treated with isogenic mouse MDFs, IGF1/2 blocking antibody (abcam 9572) at 10 μg/ml or recombinant IGF (Peprotech 100-11) at 100 ng/ml. Cells were harvested, fixed with methanol, treated for 45 min with 10 μg/ml of RNase, resuspended in PBS containing 10 μg/ml of propidium iodide and subjected to flow cytometry.

In experiment [4] the test system is MDA-MB-231 breast cancer cells. As to the kind of experiment: Cell death by flow cytometry under nab-paclitaxel with MCM or recombinant IGF. The class given is cell-based, human. The following applies: recombinant IGF 100 ng/ml; 500 nM nab-paclitaxel, 48 hours; FIG. 33. The procedure: FIG. 33 illustrates human breast MDA-MB-231 cancer cells cultured in the presence or absence of MCM or recombinant IGF and treated with 500 nM nab-paclitaxel for 48 hours. Percentage of cell death was quantified by flow cytometry. Error bars represent s.d. (n=3); *two tailed p value≤0.05, **two tailed p value≤0.01 using a student's t-test.
MDA-MB-231 cells were pretreated for 3 hours with human macrophage derived factors (MDF) or recombinant IGF (100 ng/ml) followed by 500 nM of nab-paclitaxel.

The values that follow come from US20180104332A1, “INSULIN-LIKE GROWTH FACTOR INHIBITOR AND CHEMOTHERAPEUTIC AGENT FOR USE IN CANCER THERAPY” (The University of Liverpool, priority 2015, published 2018).

For `Nc1ccn([C@@H]2O[C@H](CO)[C@@H](O)C2(F)F)c(=O)n1` [gemcitabine], the “effect on tumor growth (tumor weights)” value in experiment [1] is given as “no effect”. Besides, in the experiment with pancreatic cancer, the “patients treated with gemcitabine who die within 5 years of commencing treatment” value is on record as 95%.
For the molecule “recombinant IGF: recombinant IGF (Peprotech 100-11) used at 100 ng/ml”, the “resistance of pancreatic cancer cells to gemcitabine and nab-paclitaxel” value in experiment [2] is given as “sufficient to mediate resistance”. For the same molecule, the “Insulin/IGFR signaling in pancreatic and breast cancer cells” value in the experiment on Insulin/IGF receptor is “activates Insulin/IGFR signaling”. Also, the “survival or proliferation of cancer cells, agent alone” value in experiment [3] is listed as “did not alter the survival or proliferation”. Also, the “resistance of breast cancer cells to nab-paclitaxel” value in experiment [4] is on record as “sufficient to mediate resistance”.

B1: BI 836845: IGF blocking antibody, in phase 1 clinical trials for various solid cancers (antibody, chains of the INN, looked up, V domains shown)
VH: QVELVESGGGLVQPGGSLRLSCAASGFTFTSYWMSWVRQAPGKGLELVSSITSYGSFTYYADSVKGRFTISRDNSKNTLYLQMNSLRAEDTAVYYCARNMYTHFDSWGQGTLVTVSS
VL: DIVLTQPPSVSGAPGQRVTISCSGSSSNIGSNSVSWYQQLPGTAPKLLIYDNSKRPSGVPDRFSGSKSGTSASLAITGLQSEDEADYYCQSRDTYGYYWVFGGGTKLTVL
Consider B1, for which the “effect on tumor growth (tumor weights)” value in experiment [1] is listed as “modest effect”. In addition, in experiment [1] (immunohistochemical analysis, FIG. 47e), the “phospho-Insulin/IGFR expression in tumors” value was “decreased”.
